Test results taken from ChEMBL document CHEMBL3244110, “Synthesis and biological evaluation of some 2-amino-4-aryl-3H-1,5-benzodiazepine analogues of clozapine” (J Med Chem, 1978).
Calls of active or inactive are those of the source. The calls are words filed in the database; no cut-off is given here.

Key:
[1] = tested on: Rattus norvegicus; assay: Antipsychotic activity in 0.2 mA footshock-induced conditioned stimulus rat assessed as decrease in avoidance response at 20 mg/kg, ip after 30 mins; assay type: functional, organism-based; set-up: dose 20 mg/kg
[2] = tested on: Rattus norvegicus; assay: Antipsychotic activity in 0.2 mA footshock-induced conditioned stimulus rat assessed as decrease in avoidance response at 5 mg/kg, ip after 30 mins; assay type: functional, organism-based; set-up: dose 5 mg/kg
[3] = tested on: Mus musculus; assay: Antipsychotic activity in mouse assessed as protection against amphetamine-induced lethality at 5 mg/kg, ip treated 30 mins before amphetamine challenge; assay type: functional, organism-based; set-up: dose 5 mg/kg
[4] = tested on: Mus musculus; assay: Antipsychotic activity in mouse assessed as protection against amphetamine-induced lethality at 50 mg/kg, ip treated 30 mins before amphetamine challenge; assay type: functional, organism-based; set-up: dose 50 mg/kg
[5] = tested on: Mus musculus; assay: Antipsychotic activity in mouse assessed as increase in brain dopamine turnover at 25 to 30 mg/kg, ip pretreated with 200 mg/kg, ip alpha-methyl-p-tyrosine tyrosine hydroxylase inhibitor; assay type: functional, organism-based
[6] = tested on: Mus musculus; assay: Toxicity in mouse assessed as ptosis at 30 mg/kg, ip; assay type: organism-based; set-up: dose 30 mg/kg, route intraperitoneal; settings: in vivo

Clc1ccc(C2CCN(C3=Nc4ccccc4N=C(c4ccccc4)C3)CC2)cc1
Activity [1]: inactive
Activity [2]: inactive
Activity [3]: Active
Activity [4]: inactive
Activity [5]: inactive
Activity [6]: Toxic
